Laboratory results as given in US7754718B2 (priority 2004, dated 2010).

Tests used:
[1] = system: HBV; assay: In vitro antiviral assay for HBV (Table 1); type: cell-based, Hepatitis B virus; conditions: Hepatitis B virus, read-out: Antiviral Activities (EC50, μM) HBV
Description: (§1) The antiviral assays for HBV, (Doong et al., 1991, Proc. Natl. Acad. Sci. U.S.A. 88:8495-8499) HSV-1, (Bastow et al., 1983, Antimicrob. Agents Chemother. 23: 914-917) HSV-2, (Bastow et al., 1983, Antimicrob. Agents Chemother. 23:914-917) EBV, (Yao et al., 1993, Antimicrob. Agents Chemother. 37:1420-1425), CMV (Andreoni et al., 2002, J. Med. Virol. 67:33-40) and HIV (Mellors et al., 1992, Mol. Pharmacol. 41: 446-451) were performed according to the previously reported procedures. Anti-HCV activities were tested in Huh-Luc/neo cell line. Cells were seeded into 48-well plates and grown until confluent. Different concentrations of drugs were added into media (DMEM, 10% dFBS) and incubated for 3 days. At the end of 3-day treatment, medium were removed and 50 μl of Passive lysis buffer (Promega) were added. Cell lysate was shaken at room temperature for 15 min. 30 μl/well of cell lysate was transferred to another 96-well plate, 100 μl/well of luciferase activity assay substrate was added into plate and read by a luminometer (Amersham) immediately.

[2] = Cell cytotoxicity assay on CEM cells; type: cell-based; conditions: human, read-out: Cytotoxity (ID50, μM) CEM
Description: (§2) Cytotoxicities of test compounds on MT-2 (Mellors et al., 1992 Mol. Pharmacol. 41:446-451) and CEM (Grove et al., 1995, Cancer Res. 55:3008-3011) cells were determined according to the previously reported procedures. Hepg2 cells were seeded at a density of 10^4 cells/ml/well in 24-well plates and cultured in MEME supplemented with 10% FBS at 37° C. and 5% CO2. Each test compound at different concentrations was added on the second day of the culture and the cells were incubated for another 3 days. At the end of the incubation period, the medium was removed and 0.5 ml of 0.5% methylene blue in 50% ethanol (v/v) was added to each well and set at room temperature for 30-60 minutes. The methylene blue was removed; the plates were washed with water and allowed to air dry. Once dry, 1% sarcosyl was added to dissolve the stained cell layer. The absorbance at 595 nm was measured with a microplate reader (Molecular Devices Corp. Sunnyvale, Calif.). The cytotoxicity to CEM cell was calculated as described previously (Grove et al., 1995, Cancer Res. 55 (14): 3008-3011).

[3] = system: HIV; assay: In vitro antiviral assay for HIV; type: cell-based, human immunodeficiency virus; conditions: Human immunodeficiency virus 1, read-out: Antiviral Activities (EC50, μM) HIV, in vitro; (T) after a value means toxic
Description: as §1

[4] = system: HSV-1; assay: In vitro antiviral assay for HSV-1; type: cell-based, Herpes Simplex Virus 1; conditions: Human alphaherpesvirus 1, read-out: Antiviral Activities (EC50, μM) HSV-1
Description: as §1

[5] = system: HSV-2; assay: In vitro antiviral assay for HSV-2; type: cell-based, Herpes Simplex Virus 2; conditions: Human alphaherpesvirus 2, read-out: Antiviral Activities (EC50, μM) HSV-2
Description: as §1

[6] = Cell cytotoxicity assay on MT-2 cells; type: cell-based; conditions: human, read-out: Cytotoxity (ID50, μM) MT-2
Description: as §2

[7] = system: EBV; assay: In vitro antiviral assay for EBV; type: cell-based, Epstein-Barr Virus; conditions: human gammaherpesvirus 4, read-out: Antiviral Activities (EC50, μM) EBV
Description: as §1

[8] = system: HCV; assay: Anti-HCV activity in Huh-Luc/neo cell line, luciferase activity after 3-day treatment; type: cell-based, Hepatitis C virus; conditions: Hepatitis C virus, 72 h, Huh-Luc/neo cells, 3 days; for inhibition at 10 µM: read-out: HCV percent of inhibition; for EC50: given as a bound only, read-out: Antiviral Activities (EC50, μM) HCV
Description: as §1

Compound | EC50 [1] [µM] | IC50 [2] [µM] | EC50 [3] [µM] | EC50 [4] [µM] | EC50 [5] [µM] | IC50 [6] [µM] | EC50 [7] [µM] | melting point | inhibition at 10 µM [8] [%] | EC50 [8] [µM]
CCOC(=O)c1c(C(=O)OCC)c(-c2ccc3c(c2)OCO3)c2c3c(ccc2c1O)OCO3 [Compound 33, 9-Benzo[1,3]dioxol-5-yl-6-hydroxy-naphtho[1,2-d][1,3]dioxole-7,8-dicarboxylic acid diethyl ester] | > 10 | 39 | > 15 | > 50 | > 50 | 15 | > 10 | 192 to 194 °C | 62 | 
O=C1OCc2c1c(-c1ccc3c(c1)OCO3)c1c3c(ccc1c2O)OCO3 [Compound 34, 10-Benzo[1,3]dioxol-5-yl-6-hydroxy-7H-furo[3′,4′:6,7]naphtho[1,2-d][1,3]dioxol-9-one] | > 10 | 31 | > 13 | 23 | 28 | 13 | > 10 | 257 °C (dec.) |  | > 10
O=c1[nH][nH]c(=O)c2c(-c3ccc4c(c3)OCO4)c3c4c(cc(I)c3cc12)OCO4 [Compound 43, 11-Benzo[1,3]dioxol-5-yl-5-iodo-8,9-dihydro-1,3-dioxa-8,9-diaza-cyclopenta[a]anthracene-7,10-dione] | > 10 | 40 | 2 | > 40 | > 40 | 35 | > 20 | 300 °C (dec.) | 52 | 
COC(=O)c1c(C(=O)O)cc2ccc3c(c2c1-c1ccc2c(c1)OCO2)OCO3 [Compound 31, 9-Benzo[1,3]dioxol-5-yl-naphtho[1,2-d][1,3]dioxole-7,8-dicarboxylic acid 8-methyl ester] | > 20 | 74 | > 90 | > 50 | > 50 | 90 | > 20 | 273 to 275 °C |  | > 10
COC(=O)c1cc2ccc3c(c2c(-c2ccc4c(c2)OCO4)c1C(=O)OC)OCO3 [Compound 30, 9-Benzo[1,3]dioxol-5-yl-naphtho[1,2-d][1,3]dioxole-7,8-dicarboxylic acid dimethyl ester] | > 20 | 50 | > 28 | > 50 | > 50 | 28 | > 20 | 157 to 159 °C | 93 | 
O=C1NCc2c1cc1c(Br)cc3c(c1c2-c1ccc2c(c1)OCO2)OCO3 [Compound 40, 10-Benzo[1,3]dioxol-5-yl-5-bromo-8,9-dihydro-1,3-dioxa-8-aza-dicyclopenta[a,g]naphthalen-7-one] | > 20 | 38 | > 54 | 6.5 | > 20 | 54 | > 20 | 285 °C (dec.) | 32 | 
O=c1[nH][nH]c(=O)c2c(-c3ccc4c(c3)OCO4)c3c4c(cc(Cl)c3cc12)OCO4 [Compound 41, 11-Benzo[1,3]dioxol-5-yl-5-chloro-8,9-dihydro-1,3-dioxa-8,9-diaza-cyclopenta[a]anthracene-7,10-dione] | > 10 | > 100 | > 30 | 7 | > 40 | 30 | > 20 | 316 °C (dec.) | 60 | 
O=C1c2cc3ccc4c(c3c(-c3ccc5c(c3)OCO5)c2CN1CCCO)OCO4 [Compound 21, 10-Benzo[1,3]dioxol-5-yl-8-(3-hydroxy-propyl)-8,9-dihydro-1,3-dioxa-8-aza-dicyclopenta[a,g]naphthalen-7-one] | > 20 | 22 | 5 | 5 | 7 | 22 | > 20 | 213 to 215 °C | 58 | 
O=C(O)c1cc2ccc3c(c2c(-c2ccc4c(c2)OCO4)c1C(=O)O)OCO3 [Compound 32, 9-Benzo[1,3]dioxol-5-yl-naphtho[1,2-d][1,3]dioxole-7,8-dicarboxylic acid] | > 20 | > 100 | > 100 | > 50 | > 50 | > 100 | > 20 | 253 °C (dec.) |  | > 10
CCOC(=O)c1c(C(=O)OCC)c(-c2ccc3c(c2)OCO3)c2c3c(ccc2c1OC)OCO3 [Compound 35, 9-Benzo[1,3]dioxol-5-yl-6-methoxy-naphtho[1,2-d][1,3]dioxole-7,8-dicarboxylic acid diethyl ester] | > 20 | > 100 | > 24 | > 50 | > 50 | 24 | > 20 |  | 60 | 
CC(=O)NN1Cc2c(cc3ccc4c(c3c2-c2ccc3c(c2)OCO3)OCO4)C1=O [Compound 26, N-(10-Benzo[1,3]dioxol-5-yl-7-oxo-7,9-dihydro-1,3-dioxa-8-aza-dicyclopenta[a,g]naphthalen-8-yl)-acetamide] | 1 | 40 | > 7 | 5 | 10 | 7 | 13 |  |  | > 10
CNC(=O)c1cc2ccc3c(c2c(-c2ccc4c(c2)OCO4)c1C(=O)O)OCO3 [Compound 13, 9-Benzo[1,3]dioxol-5-yl-7-methylcarbamoyl-naphtho[1,2-d][1,3]dioxole-8-carboxylic acid] | > 20 | 29 | > 26 | 12 | > 25 | 26 | > 20 |  |  | > 10
Cc1c(C(=O)OCCCO)cc2ccc3c(c2c1-c1ccc2c(c1)OCO2)OCO3 [Compound 7, 9-Benzo[1,3]dioxol-5-yl-8-methyl-naphtho[1,2-d][1,3]dioxole-7-carboxylic acid 3-hydroxy-propyl ester] | > 23 | 46 | > 10 | > 25 | > 25 | 10 | > 15 |  |  | > 10
O=C(OCc1ccccc1)c1cc2ccc3c(c2c(-c2ccc4c(c2)OCO4)c1COCc1ccccc1)OCO3 [Compound 4, 9-Benzo[1,3]dioxol-5-yl-8-benzyloxymethyl-naphtho[1,2-d][1,3]-dioxole-7-carboxylic acid benzyl ester] | > 10 | > 50 | > 100 | > 50 | > 50 | > 100 | > 20 |  | 71 | 
COC1=NC(=O)c2c1cc1ccc3c(c1c2-c1ccc2c(c1)OCO2)OCO3 [Compound 23, 10-Benzo[1,3]dioxol-5-yl-7-methoxy-1,3-dioxa-8-aza-dicyclopenta[a,g]naphthalen-9-one] |  |  |  |  |  |  |  | 306 to 308 °C |  | 
O=C(OCCCOCc1ccccc1)c1cc2ccc3c(c2c(-c2ccc4c(c2)OCO4)c1COCc1ccccc1)OCO3 [Compound 6, 9-Benzo[1,3]dioxol-5-yl-8-benzyloxymethyl-naphtho[1,2-d][1,3]dioxole-7-carboxylic acid 3-benzyloxy-propyl ester] | > 10 | > 50 | > 100 | > 50 | > 50 | > 100 | > 20 |  | 55 | 
